Key:
[1] = tested on: HIV-1 (HTLV IIIa); experiment: Inhibition of the cytopathic effect of HIV on T lymphocyte cells (protection of MT-4 cells); assay type: cell-based; conditions: for EC50: Human immunodeficiency virus 1, MT4, 50% protection of MT-4 cells against HIV-1 (HTLV IIIa), read-out: 50% antiviral dose (ED50)
Excerpt: 2. Inhibition of the cytopathic effect of HIV on T lymphocyte cells
(§1) Under in vitro conditions, an infection of T lymphocytes with HIV leads to the death of the cells within a few days. The MT-4 cells, described by Harada et al. in Science 229, 563 (1985), were used in a test system (Matthes et al., Biochem. Biophys., Res. Commun. 153, 825 (1988)), to test to what extent the inventive nucleosides can nullify the cytocidal effect of HIV-1 (HTLV IIIa) on this T cell line. In addition, the antiproliferative effectiveness of the nucleosides investigated is listed and, moreover, as the concentration which decreases the proliferation of the MT-4 cells by 50% (CD50).
(§2) Comparison of the antiviral and antiproliferative effectiveness
(§3) of nucleoside analogies using MT-4 cells

[2] = Antiproliferative effect on MT-4 cells; assay type: cell-based, human; conditions: human, mt-4 cells
Excerpt: as §1, with “(CD50). […]” for “(CD50).”
as §2, §3

[3] = tested on: MT-4 cells; experiment: Antiproliferative effect on MT-4 cells; assay type: cell-based, human
Excerpt: as §1, with “(CD50). […]” for “(CD50).”
as §2, §3

[4] = In vitro cytotoxicity to cell cultures, REH; assay type: cell-based; conditions: human, reh cells; read-out: CD50, antiproliferative effect
Excerpt: (§4) 3. In vitro cytotoxicity of 3'-fluoro-4-thiothymidine to cell cultures
(§5) A series of further human cell lines was included in the investigation of the antiproliferative effect of 3'-fluoro-4-thiothymidine and the following CD50 were found: […]

[5] = In vitro cytotoxicity to cell cultures, HELFI; assay type: cell-based; conditions: human, helfi lung fibroblasts; read-out: CD50, antiproliferative effect
Excerpt: as §4, §5

[6] = In vitro cytotoxicity to cell cultures, H-8; assay type: cell-based; conditions: human, h-8 cells; read-out: CD50, antiproliferative effect
Excerpt: as §4, §5

[7] = In vitro cytotoxicity to cell cultures, Molt-4; assay type: cell-based; conditions: human, molt-4 cells; read-out: CD50, antiproliferative effect
Excerpt: as §4, §5

[8] = tested on: colony-forming cells of the bone marrow of the mouse (GM-CFU); experiment: Growth inhibition of colony-forming cells of the bone marrow (GM-CFU); assay type: cell-based; conditions: concentrations up to 100 micromoles/L
[9] = molecular target: T1, HIV-associated reverse transcriptase (HIV-RT) (Human immunodeficiency virus type 1 group M subtype B, UniProt P04585); experiment: Inhibition of the HIV-associated reverse transcriptase (HIV-RT); assay type: biochemical
T1 construct: HIV-associated reverse transcriptase (HIV-RT)
Protocol: 1. Selective inhibition of the HIV-associated reverse transcriptase (HIV-RT) by 3'-fluoro-4-thiothymidine-triphosphate
(§6) For these investigations, the effect of the compound on the activity of HIV-RT as well as on the cellular DNA polymerase was determined using the methods described by Matthes et al., in Biochem. Biophys. Res. Commun. 148, 78 (1987). Different concentrations of 3'-fluoro-4-thiothymidine triphosphate were added to the enzyme preparations. The concentrations of 3'-fluoro-4-thiothymidine triphosphate, which inhibit the polymerases investigated to the extent of 50% (ID50), were determined from the inhibition curves obtained. […] Accordingly 3'-fluoro-4-thiothymidine triphosphate inhibits the HIV-RT 700 times more effectively than the cellular DNA polymerase and thus has a largely selective effect on the HIV replication.

[10] = molecular target: T2, DNA polymerase (Homo sapiens, UniProt P09884); experiment: Inhibition of cellular DNA polymerase (enzyme mainly responsible for cellular replication); assay type: biochemical; conditions: read-out: ID50 (concentration inhibiting the polymerase to the extent of 50%), DNA polymerase
T2 sequence (P09884 1-1462): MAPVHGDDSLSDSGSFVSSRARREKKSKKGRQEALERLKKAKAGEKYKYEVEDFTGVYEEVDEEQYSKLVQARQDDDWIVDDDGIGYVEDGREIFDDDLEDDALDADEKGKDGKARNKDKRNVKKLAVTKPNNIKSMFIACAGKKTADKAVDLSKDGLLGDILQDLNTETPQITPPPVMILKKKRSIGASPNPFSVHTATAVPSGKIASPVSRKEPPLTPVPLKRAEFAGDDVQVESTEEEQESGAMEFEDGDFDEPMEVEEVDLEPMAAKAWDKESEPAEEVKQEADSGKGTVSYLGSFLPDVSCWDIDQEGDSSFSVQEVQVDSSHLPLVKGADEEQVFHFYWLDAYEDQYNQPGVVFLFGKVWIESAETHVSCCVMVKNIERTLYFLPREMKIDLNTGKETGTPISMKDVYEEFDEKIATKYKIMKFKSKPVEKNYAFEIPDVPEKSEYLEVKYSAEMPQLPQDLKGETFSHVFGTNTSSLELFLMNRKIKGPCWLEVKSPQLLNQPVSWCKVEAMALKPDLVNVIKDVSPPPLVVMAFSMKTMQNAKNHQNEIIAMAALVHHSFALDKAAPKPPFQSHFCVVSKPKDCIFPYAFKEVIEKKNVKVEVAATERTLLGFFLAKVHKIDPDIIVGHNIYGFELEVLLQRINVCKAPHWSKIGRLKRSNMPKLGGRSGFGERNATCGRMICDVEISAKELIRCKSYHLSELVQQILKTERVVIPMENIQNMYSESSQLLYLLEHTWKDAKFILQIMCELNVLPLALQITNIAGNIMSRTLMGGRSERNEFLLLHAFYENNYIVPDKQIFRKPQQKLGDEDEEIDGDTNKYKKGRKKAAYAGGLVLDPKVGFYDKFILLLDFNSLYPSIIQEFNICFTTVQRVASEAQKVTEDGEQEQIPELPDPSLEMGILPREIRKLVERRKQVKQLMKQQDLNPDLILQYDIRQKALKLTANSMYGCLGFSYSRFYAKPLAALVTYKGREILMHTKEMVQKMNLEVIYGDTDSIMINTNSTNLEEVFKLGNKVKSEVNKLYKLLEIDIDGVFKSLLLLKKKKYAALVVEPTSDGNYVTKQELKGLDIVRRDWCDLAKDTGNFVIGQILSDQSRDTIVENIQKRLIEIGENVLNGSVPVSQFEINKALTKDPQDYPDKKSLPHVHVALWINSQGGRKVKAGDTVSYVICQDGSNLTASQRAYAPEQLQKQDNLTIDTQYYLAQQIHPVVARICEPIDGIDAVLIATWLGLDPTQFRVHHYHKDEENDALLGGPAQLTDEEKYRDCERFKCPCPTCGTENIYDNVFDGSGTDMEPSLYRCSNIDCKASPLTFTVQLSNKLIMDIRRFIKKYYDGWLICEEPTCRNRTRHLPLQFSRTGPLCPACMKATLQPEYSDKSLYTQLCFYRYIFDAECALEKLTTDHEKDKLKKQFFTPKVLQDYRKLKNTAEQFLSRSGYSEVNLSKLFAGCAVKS
Protocol: as §6

[11] = molecular target: DNA polymerase β (Homo sapiens, UniProt P06746); experiment: Inhibition of DNA polymerase β (cellular DNA repair enzyme); assay type: biochemical; conditions: read-out: ID50 (concentration inhibiting the polymerase to the extent of 50%), DNA polymerase β
Protocol: as §6

[12] = tested on: AIDS patients; conditions: cited from earlier work
[13] = AIDS patients with Pneumocystis carinii pneumonia

Row | EC50 [1] [µM] | SMILES | CC50 [2] [µM] | further results
1 | 100 | Cc1cn([C@H]2C[C@H](F)[C@@H](CO)O2)c(=O)nc1NO [1-(2,3-Dideoxy-3-fluoro-β-D-ribofuranosyl)-4-hydroxylamino-5-methyl-(1H)-pyrimidine-2-one] | 300 | –
2 | 0.85 | Cc1cn([C@H]2C=C[C@@H](CO)O2)c(=O)[nH]c1=S [1-(2,3-Dideoxy-β-D-glycero-pent-2-enofuranosyl)-4-thiothymine] | 350 | –
3 | 15 | O=c1[nH]c(=S)ccn1[C@H]1C[C@H](F)[C@@H](CO)O1 [1-(2,3-Dideoxy-3-fluoro-β-D-ribofuranosyl)-4-thiouracil] | 150 | –
4 | 12 | Cc1cnc(=O)n([C@H]2C[C@H](F)[C@@H](CO)O2)c1 [1-(2,3-dideoxy-3-fluoro-β-D-ribofuranosyl)-5-methyl-pyrimidine-2-one] | > 400 | –
5 | 1.8 | Cc1cn([C@H]2C[C@H](F)[C@@H](CO)O2)c(=O)[nH]c1=S [1-(2,3-Dideoxy-3-fluoro-β-D-ribofuranosyl)-4-thiothymine] | 480 | inhibition of HIV replication (summary in words) [1]: effective inhibitor of HIV replication; effect on cell proliferation (in words) ([3]; MT-4 cells): hardly any effect on the cell proliferation; cytotoxicity (summary in words) ([3]; summary of the cell tests): very slight cytotoxicity; CC50 [4]: 500 µM; CC50 [5]: 700 µM; CC50 [6]: ≥ 800 µM; CC50 [7]: ≥ 1000 µM; growth-inhibiting effect on colony-forming cells of the bone marrow [8]: no growth-inhibiting effect whatsoever
6 | 12 | CSc1ccn([C@H]2C[C@H](F)[C@@H](CO)O2)c(=O)n1 [1-(2,3-dideoxy-3-fluoro-β-D-ribofuranosyl)-4-methylmercapto-pyrimidine-2-one] | 50 | –
7 | > 1000 | CSc1nc(=O)n([C@H]2C[C@H](F)[C@@H](CO)O2)cc1C [1-(2,3-Dideoxy-3-fluoro-β-D-ribofuranosyl)-4-methylmercapto-5-methyl-(1H)-pyrimidine-2-one] | > 1000 | –
8 | – | Cc1cn([C@H]2C[C@H](F)[C@@H](COP(=O)(O)OP(=O)(O)OP(=O)(O)O)O2)c(=O)[nH]c1=S [3'-fluoro-4-thiothymidine triphosphate, 1-(2,3-Dideoxy-3-fluoro-β-D-ribofuranosyl)-4-thiothymine-5'-triphosphate] | – | inhibits the HIV-RT times more effectively than the cellular DNA polymerase ([9]; HIV-RT versus cellular DNA polymerase): 700 times; IC50 ([9]; HIV-RT, read-out: ID50 (concentration inhibiting the polymerase to the extent of 50%), HIV-RT): 0.3 µM; IC50 [10]: 140 µM; IC50 [11]: 7 µM
9 | – | Cc1ccc(C(=O)Nc2ccc(S(=O)(=O)O)c3cc(S(=O)(=O)O)cc(S(=O)(=O)O)c23)cc1NC(=O)c1cccc(NC(=O)Nc2cccc(C(=O)Nc3cc(C(=O)Nc4ccc(S(=O)(=O)O)c5cc(S(=O)(=O)O)cc(S(=O)(=O)O)c45)ccc3C)c2)c1 [Suranim] | – | tolerance and effectiveness (in words) ([12]; clinically tested): have not yet attained the necessary tolerance and the hoped-for effectiveness
10 | 100 | O=c1nc(NO)ccn1[C@H]1C[C@H](F)[C@@H](CO)O1 [1-(2,3-Dideoxy-3-fluoro-β-D-glycero-ribofuranosyl)-4-hydroxylamino-(1H)-pyrimidine-2-one] | 100 | –
11 | 30 | O=c1ncccn1[C@H]1C[C@H](F)[C@@H](CO)O1 [1-(2,3-dideoxy-3-fluoro-β-D-ribofuranosyl)-pyrimidine-2-one] | > 800 | –
12 | – | Cc1cn([C@H]2C[C@H](N=[N+]=[N-])[C@@H](CO)O2)c(=O)[nH]c1=O [3'-azidothymidine] | – | clinical and neurological findings (in words) [12, 13]: improvements in clinical and neurological findings; immunological functions (in words) [12, 13]: occasional restoration of certain immunological functions; life prolonging effects (in words) [12, 13]: unambiguous life prolonging effects; patients in whom toxic side effects on the bone marrow make blood transfusions necessary ([12]; AIDS patients): about 50%

Reference: patent publication US5496935A, “2',3'-dideoxynucleoside pyrimidine compounds and carbocyclic analogs” (Max-Delbru/ ck-Centrum, priority 1994, dated 1996)
